This is an account of results in ChEMBL document CHEMBL3352116, “Discovery heralds new approach to the treatment of cystic fibrosis” (J Med Chem, 2014).

pEC50: −log10 of the molar value.

For series [1], the target named is Cystic fibrosis transmembrane conductance regulator (Homo sapiens, UniProt P13569). As to the kind of experiment: Corrector activity at CFTR mutant (unknown origin) by phenotypic screening assay.
Series [2] in a line: Half life in rat. It is filed as ADME, organism-based. To be noted: in vivo.
The nature of series [3]: Oral bioavailability in rat. It is filed as ADME, organism-based. To be noted: in vivo.
Series [4] is described as follows: Inhibition of CYP450 (unknown origin). It counts as ADME. To be noted: human.
Series [5] has as its target Cystic fibrosis transmembrane conductance regulator (Homo sapiens, UniProt P13569, F508DEL/G551D). As to the kind of experiment: […] activity at human bronchial epithelium CFTR F508del and G551D mutant assessed as increase in channel gating.

Chain of Cystic fibrosis transmembrane conductance regulator (Homo sapiens, UniProt P13569) (P13569 whole entry, looked up, change not shown): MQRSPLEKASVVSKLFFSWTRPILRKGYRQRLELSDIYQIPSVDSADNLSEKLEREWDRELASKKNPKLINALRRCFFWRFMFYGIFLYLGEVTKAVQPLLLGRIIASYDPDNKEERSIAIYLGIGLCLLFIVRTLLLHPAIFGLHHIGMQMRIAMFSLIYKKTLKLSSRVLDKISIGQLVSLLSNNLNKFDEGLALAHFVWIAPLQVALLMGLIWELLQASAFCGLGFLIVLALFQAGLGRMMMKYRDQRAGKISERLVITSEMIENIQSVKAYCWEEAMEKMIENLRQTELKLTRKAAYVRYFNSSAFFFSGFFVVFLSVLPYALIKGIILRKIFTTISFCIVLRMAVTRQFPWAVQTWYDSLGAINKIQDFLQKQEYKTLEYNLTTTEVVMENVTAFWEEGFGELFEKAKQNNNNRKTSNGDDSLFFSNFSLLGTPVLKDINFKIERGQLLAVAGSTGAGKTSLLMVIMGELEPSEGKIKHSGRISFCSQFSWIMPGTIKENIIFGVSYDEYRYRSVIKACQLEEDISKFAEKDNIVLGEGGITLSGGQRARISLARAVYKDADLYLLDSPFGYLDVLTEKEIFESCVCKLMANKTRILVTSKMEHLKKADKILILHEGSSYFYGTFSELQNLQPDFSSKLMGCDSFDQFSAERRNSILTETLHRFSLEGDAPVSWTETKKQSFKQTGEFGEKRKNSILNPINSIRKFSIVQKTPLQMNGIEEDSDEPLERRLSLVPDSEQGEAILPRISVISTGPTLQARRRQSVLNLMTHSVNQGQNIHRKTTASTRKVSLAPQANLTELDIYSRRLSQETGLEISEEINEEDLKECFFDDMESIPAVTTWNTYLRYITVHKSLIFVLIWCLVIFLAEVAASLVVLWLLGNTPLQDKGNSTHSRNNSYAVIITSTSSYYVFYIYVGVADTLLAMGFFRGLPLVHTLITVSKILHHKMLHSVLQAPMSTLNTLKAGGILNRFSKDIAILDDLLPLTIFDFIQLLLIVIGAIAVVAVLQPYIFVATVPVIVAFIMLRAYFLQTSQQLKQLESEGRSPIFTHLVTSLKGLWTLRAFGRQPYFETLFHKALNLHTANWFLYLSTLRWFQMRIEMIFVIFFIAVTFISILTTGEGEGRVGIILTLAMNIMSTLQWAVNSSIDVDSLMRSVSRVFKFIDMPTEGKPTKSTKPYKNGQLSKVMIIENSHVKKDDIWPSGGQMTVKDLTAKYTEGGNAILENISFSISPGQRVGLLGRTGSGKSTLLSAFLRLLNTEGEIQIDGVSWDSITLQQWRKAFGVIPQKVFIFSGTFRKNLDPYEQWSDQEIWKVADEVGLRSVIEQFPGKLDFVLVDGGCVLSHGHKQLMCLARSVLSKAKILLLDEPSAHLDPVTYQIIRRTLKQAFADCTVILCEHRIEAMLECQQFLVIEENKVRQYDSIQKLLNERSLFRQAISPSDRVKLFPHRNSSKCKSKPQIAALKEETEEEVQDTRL
Chain of Cystic fibrosis transmembrane conductance regulator (Homo sapiens, UniProt P13569, F508DEL/G551D) (P13569 as listed by the source): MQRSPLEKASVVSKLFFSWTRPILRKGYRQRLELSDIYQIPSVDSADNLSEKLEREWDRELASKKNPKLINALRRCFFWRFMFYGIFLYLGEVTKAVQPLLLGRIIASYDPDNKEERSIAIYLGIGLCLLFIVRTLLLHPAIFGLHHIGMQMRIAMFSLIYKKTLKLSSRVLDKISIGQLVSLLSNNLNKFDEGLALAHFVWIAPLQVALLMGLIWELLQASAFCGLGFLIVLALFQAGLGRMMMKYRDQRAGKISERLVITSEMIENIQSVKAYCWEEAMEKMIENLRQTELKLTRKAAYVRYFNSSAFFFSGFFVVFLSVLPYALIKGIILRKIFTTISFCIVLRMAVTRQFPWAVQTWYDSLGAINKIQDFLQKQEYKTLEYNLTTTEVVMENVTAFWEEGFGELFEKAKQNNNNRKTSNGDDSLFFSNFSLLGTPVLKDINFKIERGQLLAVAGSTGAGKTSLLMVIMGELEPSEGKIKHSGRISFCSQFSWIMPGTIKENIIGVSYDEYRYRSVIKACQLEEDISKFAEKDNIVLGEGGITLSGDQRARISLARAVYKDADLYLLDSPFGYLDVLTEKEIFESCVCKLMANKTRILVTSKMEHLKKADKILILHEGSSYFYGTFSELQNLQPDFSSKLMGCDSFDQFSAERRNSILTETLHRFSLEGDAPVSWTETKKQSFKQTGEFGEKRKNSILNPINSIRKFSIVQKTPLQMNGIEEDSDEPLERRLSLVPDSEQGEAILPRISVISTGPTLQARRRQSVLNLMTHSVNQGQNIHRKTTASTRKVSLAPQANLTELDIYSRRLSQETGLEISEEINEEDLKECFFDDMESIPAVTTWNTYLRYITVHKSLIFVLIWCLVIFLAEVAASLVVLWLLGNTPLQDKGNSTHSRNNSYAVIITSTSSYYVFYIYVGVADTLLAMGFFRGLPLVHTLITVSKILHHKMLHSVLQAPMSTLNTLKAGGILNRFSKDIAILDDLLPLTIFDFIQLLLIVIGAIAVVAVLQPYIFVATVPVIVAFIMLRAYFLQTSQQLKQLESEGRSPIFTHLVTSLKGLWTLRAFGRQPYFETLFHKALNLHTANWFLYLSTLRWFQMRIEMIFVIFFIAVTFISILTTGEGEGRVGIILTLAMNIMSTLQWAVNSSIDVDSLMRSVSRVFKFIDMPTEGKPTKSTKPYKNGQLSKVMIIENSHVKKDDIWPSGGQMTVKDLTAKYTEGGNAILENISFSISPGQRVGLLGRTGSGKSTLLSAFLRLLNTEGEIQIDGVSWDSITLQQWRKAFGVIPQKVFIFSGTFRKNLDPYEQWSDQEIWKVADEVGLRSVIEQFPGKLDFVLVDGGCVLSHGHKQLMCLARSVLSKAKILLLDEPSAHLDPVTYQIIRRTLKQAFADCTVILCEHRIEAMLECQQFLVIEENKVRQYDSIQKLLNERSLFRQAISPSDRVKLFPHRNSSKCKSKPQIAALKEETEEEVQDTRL

As for `O=C(c1c[nH]c2ccccc2c1=O)N(Cc1ccccc1)Cc1ccccc1`, the pEC50 (as a rule, −log10 of the EC50, conventionally taken in molar units) in series [1] is 5.68.
On to `CC(C)(C)c1cc(C(C)(C)C)c(NC(=O)c2c[nH]c3ccccc3c2=O)cc1O` [IVACAFTOR], for which the results for the negative-log EC50 (pEC50) in series [1] and in series [5] were 8.52 and 6.63, respectively. In addition, the half-life (usually the time in which the quantity being followed falls by half) in series [2] was 570 min. In addition, the bioavailability (in general, the share of a dose that reaches the circulation, judged against a reference dose that is usually intravenous) in series [3] came out at 55%. Besides, the “inhibition (INH)” value in series [4] is on record as “Not Active”.
The molecule `O=C(Nc1ccc2cc[nH]c2c1)c1c[nH]c2ccccc2c1=O` gave a pEC50 in series [1] of 7.00.
